The record followed here is US20220125777A1, “COMBINATION OF A CDK INHIBITOR AND A PIM INHIBITOR” (Pfizer Inc., priority 2019, published 2022).

The assay concerns HR+/HER2− advanced or metastatic breast cancer. In words: Study 2: progression-free survival by PIM2 mRNA expression, palbociclib plus fulvestrant vs placebo plus fulvestrant. The assay is classed as in vivo, human. Particulars: Study 2, control arm, fulvestrant alone (placebo plus fulvestrant 500 mg IM); FIG. 2A. As to the method:
Study 2 was conducted in HR+/HER2− advanced or metastatic breast cancer (MBC) patients who had progressed on prior endocrine therapy. Pre- and peri-menopausal subjects were given an LHRH agonist. Subjects were treated with palbociclib (125 mg QD, 3/1 schedule) plus fulvestrant (500 mg IM on Days 1 and 15 of Cycle 1, and then Day 1 of each subsequent 28-day cycle) or placebo (3/1 schedule QD) plus fulvestrant on the same schedule. In both studies, the primary outcome was PFS as assessed by the investigator.
Tumor samples were analyzed to identify potential predictive biomarkers for palbociclib plus letrozole treatment. Using the EdgeSeq Oncology BM Panel, mRNA expression was assessed for 2534 cancer-related genes. […] Targeted capture sequencing was used to quantitate RNA expression levels of gene targets. […]
The primary outcome was PFS as assessed by the investigator.
Tumor samples were analyzed by EdgeSeq Oncology BM Panel (HTG Molecular Diagnostics; https://www.htgmolecular.com/assays/obp) for mRNA expression assessment of 2534 cancer-related genes. […]
The EdgeSeq system used was validated and used targeted capture sequencing to quantitate RNA expression levels of gene targets in formalin-fixed paraffin-embedded tumor tissues. […]

In the case of `C[C@]12CC[C@@H]3c4ccc(O)cc4C[C@@H](CCCCCCCCC[S+]([O-])CCCC(F)(F)C(F)(F)F)[C@H]3[C@@H]1CC[C@@H]2O` (stereo partly shown) [fulvestrant], the “PFS of subjects having low PIM2 expression versus higher PIM2 expression” value is listed as “shorter PFS”.
